# Experimental data as given in patent US9657015B2, “Substituted bicyclic dihydropyrimidinones and their use as inhibitors of neutrophil elastase activity” (Boehringer Ingelheim International GmbH, priority 2014, dated 2017).
# Tests used:
# [1] = target: Human neutrophil elastase (Homo sapiens (Human), UniProt P08246); assay: Human Neutrophil Elastase Assay; type: biochemical; details: substrate MeOSuc-Ala-Ala-Pro-Val-AMC 250 μM, pH 7.5, room temperature
# [2] = target: neutrophil elastase in human plasma (Homo sapiens (Human), UniProt P08246); assay: Neutrophil elastase inhibitory activity in human plasma; type: biochemical; details: human plasma assay (zymosan-stimulated blood plasma), substrate 250 μM, pH 7.5
# Chain of neutrophil elastase in human plasma (P08246 30-247): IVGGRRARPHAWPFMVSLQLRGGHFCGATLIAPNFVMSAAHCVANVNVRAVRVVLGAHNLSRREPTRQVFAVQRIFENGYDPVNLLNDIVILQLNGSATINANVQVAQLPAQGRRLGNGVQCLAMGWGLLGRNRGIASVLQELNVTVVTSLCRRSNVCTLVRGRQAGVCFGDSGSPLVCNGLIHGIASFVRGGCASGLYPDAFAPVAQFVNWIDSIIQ
# Chain of Human neutrophil elastase (P08246 30-247): as above
IC50 [1],IC50 [2],SMILES
5.7 nM,11 nM,"N#Cc1ccc(C2NC(=O)N(c3cccc(C(F)(F)F)c3)C3=C2C(=O)NCC3)cc1 (racemic) [Example 1, 4-(2,5-Dioxo-1-(3-(trifluoromethyl)phenyl)-1,2,3,4,5,6,7,8-octahydropyrido[4,3-d]-pyrimidin-4-yl)benzonitrile]"
6.9 nM,8.2 nM,"N#Cc1ccc(C2NC(=O)N(c3cccc(C(F)F)c3)C3=C2C(=O)NCC3)cc1 (racemic) [Example 2, 4-(1-(3-(Difluoromethyl)phenyl)-2,5-dioxo-1,2,3,4,5,6,7,8-octahydropyrido[4,3-d]-pyrimidin-4-yl)benzonitrile]"
5.8 nM,2.9 nM,"CN1CCC2=C(C1=O)C(c1ccc(C#N)cc1)NC(=O)N2c1cccc(C(F)(F)F)c1 (racemic) [Example 4, 4-(6-Methyl-2,5-dioxo-1-(3-(trifluoromethyl)phenyl)-1,2,3,4,5,6,7,8-octahydropyrido[4,3-d]pyrimidin-4-yl)benzonitrile]"
< 1 nM,1.5 nM,"CN1C(=O)N(c2cccc(C(F)(F)F)c2)C2=C(C(=O)NCC2)C1c1ccc(C#N)cc1-c1cnco1 (racemic) [Example 25, 4-{3-Methyl-2,5-dioxo-1-[3-(trifluoromethyl)phenyl]-1H,2H,3H,4H,5H,6H,7H,8H-pyrido[4,3-d]pyrimidin-4-yl}-3-(1,3-oxazol-5-yl)benzonitrile]"
< 1 nM,1.4 nM,"CN1C(=O)N(c2cccc(C(F)(F)F)c2)C2=C(C(=O)NCC2)C1c1ccc(C#N)cc1-c1cnn(C)c1 (racemic) [Example 26, 3-(1-Methyl-1H-pyrazol-4-yl)-4-{3-methyl-2,5-dioxo-1-[3-(trifluoromethyl)phenyl]-1H,2H,3H,4H,5H,6H,7H,8H-pyrido[4,3-d]pyrimidin-4-yl}benzonitrile]"
< 1 nM,< 1 nM,"CN1C(=O)N(c2cccc(C(F)(F)F)c2)C2=C(C(=O)NCC2)C1c1ccc(C#N)cc1CO (racemic) [Example 29, 3-(Hydroxymethyl)-4-{3-methyl-2,5-dioxo-1-[3-(trifluoromethyl)phenyl]-1H,2H,3H,4H,5H,6H,7H,8H-pyrido[4,3-d]pyrimidin-4-yl}benzonitrile]"
940 nM,–,"N#Cc1ccc([C@@H]2NC(=O)N(c3cccc(C(F)(F)F)c3)C3=C2C(=O)NCC3)cc1 [Example 1B, (S)-4-(2,5-Dioxo-1-(3-(trifluoromethyl)phenyl)-1,2,3,4,5,6,7,8-octahydropyrido[4,3-d]-pyrimidin-4-yl)benzonitrile]"
> 10000 nM,–,"N#Cc1ccc([C@@H]2NC(=O)N(c3cccc(C(F)F)c3)C3=C2C(=O)NCC3)cc1 [Example 2B, (S)-4-(1-(3-(Difluoromethyl)phenyl)-2,5-dioxo-1,2,3,4,5,6,7,8-octahydropyrido[4,3-d]-pyrimidin-4-yl)benzonitrile]"
9.8 nM,13 nM,"CC1(C)CC2=C(C(=O)N1)C(c1ccc(C#N)cc1)NC(=O)N2c1cccc(C(F)(F)F)c1 (centres unmarked) [Example 3, 4-(7,7-Dimethyl-2,5-dioxo-1-(3-(trifluoromethyl)phenyl)-1,2,3,4,5,6,7,8-octahydropyrido[4,3-d]pyrimidin-4-yl)benzonitrile]"
1900 nM,–,"CN1CCC2=C(C1=O)[C@H](c1ccc(C#N)cc1)NC(=O)N2c1cccc(C(F)(F)F)c1 [Example 4B, (S)-4-(6-Methyl-2,5-dioxo-1-(3-(trifluoromethyl)phenyl)-1,2,3,4,5,6,7,8-octahydropyrido[4,3-d]pyrimidin-4-yl)benzonitrile]"
1.9 nM,1.1 nM,"CN1C(=O)N(c2cccc(C(F)(F)F)c2)C2=C(C(=O)NCC2)C1c1ccc(C#N)cc1 (centres unmarked) [Example 5, 4-(3-Methyl-2,5-dioxo-1-(3-(trifluoromethyl)phenyl)-1,2,3,4,5,6,7,8-octahydropyrido-[4,3-d]pyrimidin-4-yl)benzonitrile]"
1.2 nM,2 nM,"CN1CCC2=C(C1=O)[C@@H](c1ccc(C#N)cc1)N(C)C(=O)N2c1cccc(C(F)(F)F)c1 [Example 7, (R)-4-(3,6-Dimethyl-2,5-dioxo-1-(3-(trifluoromethyl)phenyl)-1,2,3,4,5,6,7,8-octahydropyrido[4,3-d]pyrimidin-4-yl)benzonitrile]"
36 nM,–,"CN1C(=O)N(c2cccc(C(F)F)c2)C2=C(C(=O)NCC2)[C@@H]1c1ccc(C#N)cc1 [Example 8B, (S)-4-(1-(3-(Difluoromethyl)phenyl)-3-methyl-2,5-dioxo-1,2,3,4,5,6,7,8-octahydropyrido[4,3-d]pyrimidin-4-yl)benzonitrile]"
2.7 nM,2.4 nM,"N#Cc1ccc(C2C3=C(CCNC3=O)N(c3cccc(C(F)(F)F)c3)C(=O)N2CC(=O)O)cc1 (centres unmarked) [Example 10, 2-(4-(4-Cyanophenyl)-2,5-dioxo-1-(3-(trifluoromethyl)phenyl)-1,2,5,6,7,8-hexahydropyrido[4,3-d]pyrimidin-3(4H)-yl)acetic acid]"
3 nM,2.9 nM,"N#Cc1ccc(C2C3=C(CCNC3=O)N(c3cccc(C(F)(F)F)c3)C(=O)N2CC(N)=O)cc1 (centres unmarked) [Example 11, 2-(4-(4-Cyanophenyl)-2,5-dioxo-1-(3-(trifluoromethyl)phenyl)-1,2,5,6,7,8-hexahydropyrido[4,3-d]pyrimidin-3(4H)-yl)acetamide]"
1200 nM,–,"CNC(=O)CN1C(=O)N(c2cccc(C(F)(F)F)c2)C2=C(C(=O)NCC2)[C@@H]1c1ccc(C#N)cc1 [Example 12B, (S)-2-(4-(4-Cyanophenyl)-2,5-dioxo-1-(3-(trifluoromethyl)phenyl)-1,2,5,6,7,8-hexahydropyrido[4,3-d]pyrimidin-3(4H)-yl)-N-methylacetamide]"
4.3 nM,2.2 nM,"CC1(C)CC2=C(C(=O)N1)C(c1ccc(C#N)cc1)N(CC(=O)O)C(=O)N2c1cccc(C(F)(F)F)c1 (centres unmarked) [Example 13, 2-(4-(4-cyanophenyl)-7,7-dimethyl-2,5-dioxo-1-(3-(trifluoromethyl)phenyl)-1,2,5,6,7,8-hexahydropyrido[4,3-d]pyrimidin-3(4H)-yl)acetic acid]"
3 nM,14 nM,"CN1CCC2=C(C1=O)C(c1ccc(C#N)cc1)N(CC(N)=O)C(=O)N2c1cccc(C(F)(F)F)c1 (centres unmarked) [Example 14, 2-(4-(4-Cyanophenyl)-6-methyl-2,5-dioxo-1-(3-(trifluoromethyl)phenyl)-1,2,5,6,7,8-hexahydropyrido[4,3-d]pyrimidin-3(4H)-yl)acetamide]"
12 nM,–,"CN1C(=O)N(c2cccc(C(F)(F)F)c2)C2=C(C(=O)NCC2)[C@@H]1c1ccc(C#N)cc1-c1cnco1 [Example 30B, 4-[(4S)-3-Methyl-2,5-dioxo-1-[3-(trifluoromethyl)phenyl]-1H,2H,3H,4H,5H,6H,7H,8H-pyrido[4,3-d]pyrimidin-4-yl]-3-(1,3-oxazol-5-yl)benzonitrile]"
17 nM,–,"CN1C(=O)N(c2cccc(C(F)(F)F)c2)C2=C(C(=O)NCC2)[C@@H]1c1ccc(C#N)cc1-c1cnn(C)c1 [Example 31B, 3-(1-Methyl-1H-pyrazol-4-yl)-4-[(4S)-3-methyl-2,5-dioxo-1-[3-(trifluoromethyl)-phenyl]-1H,2H,3H,4H,5H,6H,7H,8H-pyrido[4,3-d]pyrimidin-4-yl]benzonitrile]"
39 nM,–,"CN1C(=O)N(c2cccc(C(F)(F)F)c2)C2=C(C(=O)NCC2)[C@@H]1c1ccc(C#N)cc1CO [Example 32B, 3-(Hydroxymethyl)-4-[(4S)-3-methyl-2,5-dioxo-1-[3-(trifluoromethyl)phenyl]-1H,2H,3H,4H,5H,6H,7H,8H-pyrido[4,3-d]pyrimidin-4-yl]benzonitrile]"

SMILES,IC50 [1],IC50 [2]
"CNC(=O)CN1C(=O)N(c2cccc(C(F)(F)F)c2)C2=C(C(=O)NCC2)C1c1ccc(C#N)cc1 (racemic) [Example 12, 2-(4-(4-Cyanophenyl)-2,5-dioxo-1-(3-(trifluoromethyl)phenyl)-1,2,5,6,7,8-hexahydropyrido[4,3-d]pyrimidin-3(4H)-yl)-N-methylacetamide]",2 nM,2.8 nM
CN(C)C(=O)CN1C(=O)N(c2cccc(C(F)(F)F)c2)C2=C(C(=O)NCC2)C1c1ccc(C#N)cc1 (centres unmarked) [Example 12.1],1.1 nM,< 1 nM
CCNC(=O)CN1C(=O)N(c2cccc(C(F)(F)F)c2)C2=C(C(=O)NCC2)C1c1ccc(C#N)cc1 (centres unmarked) [Example 12.2],2.4 nM,2.5 nM
N#Cc1ccc(C2C3=C(CCNC3=O)N(c3cccc(C(F)(F)F)c3)C(=O)N2CC(=O)NCCO)cc1 (centres unmarked) [Example 12.3],2.1 nM,3.6 nM
COCCNC(=O)CN1C(=O)N(c2cccc(C(F)(F)F)c2)C2=C(C(=O)NCC2)C1c1ccc(C#N)cc1 (centres unmarked) [Example 12.4],2 nM,5.1 nM
N#Cc1ccc(C2C3=C(CCNC3=O)N(c3cccc(C(F)(F)F)c3)C(=O)N2CC(=O)N2CC3CC3C2)cc1 (centres unmarked) [Example 12.5],< 1 nM,< 1 nM
N#Cc1ccc(C2C3=C(CCNC3=O)N(c3cccc(C(F)(F)F)c3)C(=O)N2CC(=O)N2CCCCC2)cc1 (centres unmarked) [Example 12.6],< 1 nM,< 1 nM
N#Cc1ccc(C2C3=C(CCNC3=O)N(c3cccc(C(F)(F)F)c3)C(=O)N2CC(=O)N2CCOCC2)cc1 (centres unmarked) [Example 12.7],< 1 nM,< 1 nM
N#Cc1ccc(C2C3=C(CCNC3=O)N(c3cccc(C(F)(F)F)c3)C(=O)N2CC(=O)N2CCC(F)C2)cc1 (centres unmarked) [Example 12.8],< 1 nM,1.1 nM
Cn1ncc2c1CN(C(=O)CN1C(=O)N(c3cccc(C(F)(F)F)c3)C3=C(C(=O)NCC3)C1c1ccc(C#N)cc1)C2 (centres unmarked) [Example 12.9],< 1 nM,1 nM
"CNC(=O)CN1C(=O)N(c2cccc(C(F)(F)F)c2)C2=C(C(=O)NCC2)[C@H]1c1ccc(C#N)cc1 [Example 12A, (R)-2-(4-(4-Cyanophenyl)-2,5-dioxo-1-(3-(trifluoromethyl)phenyl)-1,2,5,6,7,8-hexahydropyrido[4,3-d]pyrimidin-3(4H)-yl)-N-methylacetamide]",1.3 nM,< 1 nM
